# Data: patent US8242275B2, “Bicyclic pyrazole compounds as antibacterial agents” (Janssen Pharmaceutica NV, priority 2005, dated 2012)
# Assays:
# E. coli DNA gyrase = target: T1, E. coli DNA gyrase (Escherichia coli, UniProt P0AES4+P0AES6); test: DNA gyrase inhibition assay (supercoiling); format: biochemical; settings: E. coli DNA gyrase supercoiling, visual inspection of gels; read-out: DNA Gyrase IC50 (converted)
# T1 construct: purchased John Innes Enterprises Ltd. (John Innes Centre, UK)
# Method: Inhibition of the supercoiling activity of E. coli DNA gyrase was determined using enzymes, buffers and substrates received from John Innes Enterprises Ltd. (John Innes Centre, UK). The reactions were performed according to the manufacturer's directions, with the following modifications.
# DNA supercoiling reactions were carried out in a total reaction volume of 20 μL containing 250 ng of relaxed pBR322, 35 mM Tris-HCl (pH 7.5), 24 mM KCl, 4 mM MgCl2, 2 mM dithiothreitol, 1.8 mM spermidine, 1 mM ATP, 6.5% glycerol and 100 μg/mL albumin. Compounds diluted in 10% DMSO were added to the reaction mixture to reach a final concentration of 0.5% DMSO. Enzyme was diluted to […] in a solution of 50 mM Tris-HCl (pH 7.5), 100 mM KCl, 2 mM dithiothreitol, 1 mM EDTA, and 50% glycerol. Diluted enzyme (0.2 unit) was added to each reaction.
# The reactions were incubated at 37° C. for 30 min. The reactions were then cooled to 0° C., followed by addition of 3 μL of 40% glycerol, 100 mM Tris-HCl (pH 7.5), 50 mM EDTA, 0.5% SDS and 0.1% bromophenol blue. Samples were separated on 1.0% agarose gels. Gels were stained with Ethidium bromide and photographed with a Stratagene Eagle Eye II.
# [1] = tested on: E. coli KL-16 (GSC strain 4245); test: In vitro antibacterial activity (MIC assay), broth microdilution; format: cell-based; settings: Escherichia coli
# Method in brief: (§1)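 Bacteria at roughly 5×10^5 CFU/mL final were grown 16–24 h at 35° C in wells holding 2-fold serial dilutions (11 points) of compound prepared in 100% DMSO, following NCCLS M7-A5. MIC, in μg/mL, is the concentration that stops visible growth relative to untreated wells.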
# S. aureus ATCC13709 = test: as above; format: cell-based; settings: Staphylococcus aureus, ATCC13709; read-out: S. aureus ATCC13709 MIC
# Method in brief: as §1
# S. pneumoniae ATCC49619 = test: as above; format: cell-based; settings: Streptococcus pneumoniae, ATCC49619; read-out: S. pneumoniae ATCC49619 MIC
# Method in brief: as §1
# T1 sequence (P0AES4 whole entry, one chain of several): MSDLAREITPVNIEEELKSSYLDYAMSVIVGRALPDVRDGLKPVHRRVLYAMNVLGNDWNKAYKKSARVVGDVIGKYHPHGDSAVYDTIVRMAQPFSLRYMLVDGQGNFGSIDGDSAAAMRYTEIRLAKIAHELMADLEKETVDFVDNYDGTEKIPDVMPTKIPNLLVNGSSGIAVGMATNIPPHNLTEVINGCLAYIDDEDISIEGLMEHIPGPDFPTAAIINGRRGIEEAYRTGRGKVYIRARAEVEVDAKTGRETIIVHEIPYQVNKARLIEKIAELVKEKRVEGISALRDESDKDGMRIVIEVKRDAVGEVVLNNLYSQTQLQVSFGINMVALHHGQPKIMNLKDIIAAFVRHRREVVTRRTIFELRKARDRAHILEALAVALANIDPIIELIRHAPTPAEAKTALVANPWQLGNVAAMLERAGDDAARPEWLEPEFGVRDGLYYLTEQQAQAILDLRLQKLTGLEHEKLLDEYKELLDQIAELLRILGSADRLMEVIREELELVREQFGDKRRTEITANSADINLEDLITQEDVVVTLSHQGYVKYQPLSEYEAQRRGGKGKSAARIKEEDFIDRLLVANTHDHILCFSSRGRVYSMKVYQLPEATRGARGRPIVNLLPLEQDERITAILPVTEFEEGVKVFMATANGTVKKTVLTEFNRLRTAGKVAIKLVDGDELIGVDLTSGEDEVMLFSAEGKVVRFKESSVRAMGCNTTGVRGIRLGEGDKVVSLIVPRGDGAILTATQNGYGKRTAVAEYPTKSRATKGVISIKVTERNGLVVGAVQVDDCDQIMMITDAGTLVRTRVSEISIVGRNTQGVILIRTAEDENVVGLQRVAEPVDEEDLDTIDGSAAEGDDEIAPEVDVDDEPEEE
SMILES,IC50 (E. coli DNA gyrase),MIC [1],MIC (S. aureus ATCC13709),MIC (S. pneumoniae ATCC49619)
"COc1ccc2nccc(-n3cc4c(n3)CCC(NC(=O)/C=C/c3cccc(Cl)c3)C4)c2n1 (stereo not shown) [Example 12, 3-(3-Chloro-phenyl)-N-[2-(6-methoxy-[1,5]naphthyridin-4-yl)-4,5,6,7-tetrahydro-2H-indazol-5-yl]-acrylamide]",4.35 µM,> 128 µg/mL,0.25 µg/mL,8 µg/mL
"COc1ccc2nccc(-n3cc4c(n3)CCC(NC(=O)c3ccc5c(c3)OCCN5C)C4)c2c1 (stereo not shown) [Example 79, 4-Methyl-3,4-dihydro-2H-benzo[1,4]oxazine-7-carboxylic acid [2-(6-methoxy-quinolin-4-yl)-4,5,6,7-tetrahydro-2H-indazol-5-yl]-amide]",> 34.1 µM,> 128 µg/mL,4 µg/mL,8 µg/mL
"COc1ccc2nccc(-n3cc4c(n3)CCC(NC(=O)c3cc5c(cc3Cl)SCC(=O)N5)C4)c2n1 (stereo not shown) [Example 6, 7-Chloro-3-oxo-3,4-dihydro-2H-benzo[1,4]thiazine-6-carboxylic acid [2-(6-methoxy-[1,5]naphthyridin-4-yl)-4,5,6,7-tetrahydro-2H-indazol-5-yl]-amide]",0.23 µM,2 µg/mL,< 0.125 µg/mL,4 µg/mL
"O=C1CSc2ccc(C(=O)NC3CCc4c(cnn4-c4cc(C(F)(F)F)nc5c(C(F)(F)F)cccc45)C3)cc2N1 (stereo not shown) [Example 96, 3-Oxo-3,4-dihydro-2H-benzo[1,4]thiazine-6-carboxylic acid [1-(2,8-bis-trifluoromethyl-quinolin-4-yl)-4,5,6,7-tetrahydro-1H-indazol-5-yl]-amide]",> 6.76 µM,64 µg/mL,8 µg/mL,32 µg/mL
"COc1ccc2nccc(-n3cc4c(n3)CCC(NC(=O)c3ccc(Br)s3)C4)c2c1 (stereo not shown) [Example 72, 5-Bromo-thiophene-2-carboxylic acid [2-(6-methoxy-quinolin-4-yl)-4,5,6,7-tetrahydro-2H-indazol-5-yl]-amide]",> 33.1 µM,> 128 µg/mL,2 µg/mL,> 128 µg/mL
"COc1ccc2nccc(-n3cc4c(n3)CCC(NCc3ccc(N(C)C)c(C#N)c3F)C4)c2n1 (stereo not shown) [Example 35, 6-Dimethylamino-2-fluoro-3-{[2-(6-methoxy-[1,5]naphthyridin-4-yl)-4,5,6,7-tetrahydro-2H-indazol-5-ylamino]-methyl}-benzonitrile]",4.24 µM,> 128 µg/mL,< 0.125 µg/mL,1 µg/mL
"COc1ccc2nccc(-n3cc4c(n3)CCC(NC(=O)C(=O)c3cc5ccccc5[nH]3)C4)c2c1 (stereo not shown) [Example 26, 2-(1H-Indol-2-yl)-N-[2-(6-methoxy-quinolin-4-yl)-4,5,6,7-tetrahydro-2H-indazol-5-yl]-2-oxo-acetamide]",> 34.4 µM,> 128 µg/mL,0.25 µg/mL,2 µg/mL
"COc1ccc2nccc(-n3cc4c(n3)CCC(NCc3cc(F)c5c(c3)OCCO5)C4)c2c1 (stereo not shown) [Example 100, (8-Fluoro-2,3-dihydro-benzo[1,4]dioxin-6-ylmethyl)-[2-(6-methoxy-quinolin-4-yl)-4,5,6,7-tetrahydro-2H-indazol-5-yl]-amine]",1.09 µM,16 µg/mL,0.25 µg/mL,0.5 µg/mL
"COc1ccc2nccc(-n3cc4c(n3)CCC(NC(=O)/C=C/c3ccccn3)C4)c2n1 (stereo not shown) [Example 95, N-[2-(6-Methoxy-[1,5]naphthyridin-4-yl)-4,5,6,7-tetrahydro-2H-indazol-5-yl]-3-pyridin-2-yl-acrylamide]",> 37.5 µM,> 128 µg/mL,2 µg/mL,8 µg/mL
"COc1ccc2nccc(-n3cc4c(n3)CCC(NC(=O)c3cc5c(cc3C(F)(F)F)SCC(=O)N5)C4)c2n1 (stereo not shown) [Example 112, 3-Oxo-7-trifluoromethyl-3,4-dihydro-2H-benzo[1,4]thiazine-6-carboxylic acid [2-(6-methoxy-[1,5]naphthyridin-4-yl)-4,5,6,7-tetrahydro-2H-indazol-5-yl]-amide]",0.451 µM,4 µg/mL,0.125 µg/mL,8 µg/mL
"COc1ccc2nccc(-n3cc4c(n3)CCC(NC(=O)c3ccc5c(c3)NC(=O)CO5)C4)c2c1 (stereo not shown) [Example 116, 3-Oxo-3,4-dihydro-2H-benzo[1,4]oxazine-6-carboxylic acid [2-(6-methoxy-quinolin-4-yl)-4,5,6,7-tetrahydro-2H-indazol-5-yl]-amide]",0.532 µM,2 µg/mL,0.125 µg/mL,4 µg/mL
"COc1ccc2nccc(-n3cc4c(n3)CCC(NCc3ccc(N5CCCCC5)cc3)C4)c2n1 (stereo not shown) [Example 86, [2-(6-Methoxy-[1,5]naphthyridin-4-yl)-4,5,6,7-tetrahydro-2H-indazol-5-yl]-(4-piperidin-1-yl-benzyl)-amine]",4.27 µM,> 128 µg/mL,4 µg/mL,4 µg/mL
"COc1ccc2nccc(-n3cc4c(n3)CCC(NC/C=C/c3ccc(F)cc3)C4)c2c1 (stereo not shown) [Example 57, [3-(4-Fluoro-phenyl)-allyl]-[2-(6-methoxy-quinolin-4-yl)-4,5,6,7-tetrahydro-2H-indazol-5-yl]-amine]",4.67 µM,64 µg/mL,1 µg/mL,2 µg/mL
"COc1ccc2nccc(-n3cc4c(n3)CCC(NCc3cc(F)c5c(c3)OCCO5)C4)c2n1 (stereo not shown) [Example 101, (8-Fluoro-2,3-dihydro-benzo[1,4]dioxin-6-ylmethyl)-[2-(6-methoxy-[1,5]naphthyridin-4-yl)-4,5,6,7-tetrahydro-2H-indazol-5-yl]-amine]",0.542 µM,4 µg/mL,0.125 µg/mL,1 µg/mL
"COc1ccc2nccc(-n3cc4c(n3)CCC(NCCCc3ccc(C)cc3)C4)c2n1 (stereo not shown) [Example 49, [2-(6-Methoxy-[1,5]naphthyridin-4-yl)-4,5,6,7-tetrahydro-2H-indazol-5-yl]-(3-p-tolyl-propyl)-amine]",7.02 µM,128 µg/mL,< 0.125 µg/mL,0.5 µg/mL
"COc1ccc2nccc(-n3cc4c(n3)CCC(NC(=O)c3cc5cc(Cl)ccc5[nH]3)C4)c2c1 (stereo not shown) [Example 77, 5-Chloro-1H-indole-2-carboxylic acid [2-(6-methoxy-quinolin-4-yl)-4,5,6,7-tetrahydro-2H-indazol-5-yl]-amide]",> 33.9 µM,> 128 µg/mL,2 µg/mL,16 µg/mL
"COc1ccc2nccc(-n3cc4c(n3)CCC(NC(=O)/C=C/c3cc(F)ccc3C(F)(F)F)C4)c2n1 (stereo not shown) [Example 91, 3-(5-Fluoro-2-trifluoromethyl-phenyl)-N-[2-(6-methoxy-[1,5]naphthyridin-4-yl)-4,5,6,7-tetrahydro-2H-indazol-5-yl]-acrylamide]",> 31.3 µM,> 128 µg/mL,4 µg/mL,> 128 µg/mL
"COc1ccc2nccc(-n3cc4c(n3)CCC(NC(=O)c3nc5ccccc5[nH]3)C4)c2n1 (stereo not shown) [Example 8, 1H-Benzoimidazole-2-carboxylic acid [2-(6-methoxy-[1,5]naphthyridin-4-yl)-4,5,6,7-tetrahydro-2H-indazol-5-yl]-amide]",> 36.4 µM,> 128 µg/mL,0.25 µg/mL,4 µg/mL
"COc1ccc2nccc(-n3cc4c(n3)CCC(NC(=O)c3cc5cc(C)ccc5[nH]3)C4)c2c1 (stereo not shown) [Example 75, 5-Methyl-1H-indole-2-carboxylic acid [2-(6-methoxy-quinolin-4-yl)-4,5,6,7-tetrahydro-2H-indazol-5-yl]-amide]",> 35.4 µM,> 128 µg/mL,4 µg/mL,16 µg/mL
"COc1ccc2nccc(-n3cc4c(n3)CCN(C(=O)c3ccc5c(c3)NC(=O)CS5)CC4)c2n1 [Example 15, 6-[2-(6-Methoxy-[1,5]naphthyridin-4-yl)-4,5,7,8-tetrahydro-2H-1,2,6-triaza-azulene-6-carbonyl]-4H-benzo[1,4]thiazin-3-one]",> 65.8 µM,> 128 µg/mL,1 µg/mL,16 µg/mL
"COc1ccc2nccc(-n3cc4c(n3)CCC(N(Cc3ccccc3)Cc3ccc5c(c3)NC(=O)CS5)C4)c2n1 (stereo not shown) [Example 66, 6-({Benzyl-[2-(6-methoxy-[1,5]naphthyridin-4-yl)-4,5,6,7-tetrahydro-2H-indazol-5-yl]amino}-methyl)-4H-benzo[1,4]thiazin-3-one]",3.55 µM,> 128 µg/mL,8 µg/mL,> 128 µg/mL
"COc1ccc2nccc(-n3cc4c(n3)CCC(NCc3cc5c(cc3Cl)OCO5)C4)c2n1 (stereo not shown) [Example 105, N-((6-chlorobenzo[d][1,3]dioxol-5-yl)methyl)-2-(6-methoxy-1,5-naphthyridin-4-yl)-4,5,6,7-tetrahydro-2H-indazol-5-amine]",4.31 µM,> 128 µg/mL,0.5 µg/mL,4 µg/mL
